Experimental data reported in ChEMBL document CHEMBL1157339, “Sundaicumones A and B, polyprenylated acylphloroglucinol derivatives from Calophyllumsundaicum with weak activity against the glucocorticoid receptor” (J Nat Prod, 2006).

Molecular target: T1, Glucocorticoid receptor (Homo sapiens, UniProt P04150)
T1 sequence (P04150 whole entry): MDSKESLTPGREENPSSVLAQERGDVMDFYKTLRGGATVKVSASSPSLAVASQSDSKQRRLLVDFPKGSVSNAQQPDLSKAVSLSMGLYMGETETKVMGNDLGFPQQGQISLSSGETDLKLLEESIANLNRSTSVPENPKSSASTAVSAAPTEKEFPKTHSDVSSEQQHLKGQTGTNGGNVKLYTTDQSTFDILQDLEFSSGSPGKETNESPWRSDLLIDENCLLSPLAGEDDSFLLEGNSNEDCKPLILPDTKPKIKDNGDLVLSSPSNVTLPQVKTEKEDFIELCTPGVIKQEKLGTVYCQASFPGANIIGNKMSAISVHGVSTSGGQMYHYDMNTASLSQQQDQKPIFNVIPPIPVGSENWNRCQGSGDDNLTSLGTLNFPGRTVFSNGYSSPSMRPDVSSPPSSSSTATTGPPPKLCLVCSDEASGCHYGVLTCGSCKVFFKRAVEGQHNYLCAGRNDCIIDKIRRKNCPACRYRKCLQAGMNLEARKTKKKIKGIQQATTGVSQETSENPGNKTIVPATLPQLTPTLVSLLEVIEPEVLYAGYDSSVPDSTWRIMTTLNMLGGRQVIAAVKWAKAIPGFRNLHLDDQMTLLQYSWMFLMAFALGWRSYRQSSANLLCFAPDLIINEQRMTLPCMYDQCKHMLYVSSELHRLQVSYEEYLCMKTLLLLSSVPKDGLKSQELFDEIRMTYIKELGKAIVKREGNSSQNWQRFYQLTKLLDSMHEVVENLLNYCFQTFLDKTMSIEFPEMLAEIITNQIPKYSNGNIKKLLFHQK
Experiment: Activity at glucocorticoid receptor in human A549 cells assessed as effect on GRE promoter response by luciferase reporter assay
Type: cell-based

For CCCC(CC(=O)O)C1=C2O[C@H](C(C)(C)O)C[C@@]23C[C@H](CC(O)C(C)(C)O)C(C)(C)[C@@](C(=O)C(C)CC)(C1=O)C3=O (some centres not stated) [SUNDAICUMONE A], the EC50 was 173 µM.

CCCC(CC(=O)O)C1=C2O[C@H](C(C)(C)O)C[C@@]23C[C@H](CC=C(C)C)C(C)(C)[C@@](C(=O)C(C)CC)(C1=O)C3=O (some centres not stated) [SUNDAICUMONE B] showed an EC50 of 75 µM.
